According to US8772253B2, “Aureolic acid derivatives, the method for preparation thereof and the uses” (Entrechem, S.L., priority 2009, dated 2014):
Like-named read-outs stand apart in the source and are kept apart here.

Legend:
Assay type in all cases: cell-based
[1] = test system: A549 (human lung carcinoma); assay: MTT cell proliferation (cytotoxicity) assay, A549; settings: read-out: IC50 or concentration required to achieve 50% growth inhibition compared to untreated cells, A549 (lung)
Description: (§1) MTM and CRM derivatives were assayed against a collection of tumor cell lines. Tumor cell lines were obtained from The American Type and Culture Collection (ATCC), and the lines were the following; A549 (human lung carcinoma); H116 (colon adenocarcinoma); PSN1 (pancreatic adenocarcinoma) and T98G (human glyoblastoma). Cells were cultured in medium RPM1 containing 2 mM glutamine, 50 IU/ml penicillin and 50 μg/ml streptomycin. Culture medium for cell lines A549 and H116 was supplemeted with 5% FBS and culture medium for cell lines PSN1 and T98G was supplemented with 10% FBS.
(§2) The evaluation of compound cytotoxicity was carried out by determining cell viability using an assay based on metabolic reduction of 3-(4,5-dimethyl-2-thiazolyl)-2,5-diphenyltetrazolium bromide (MTT; Sigma Chemical Co. St. Louis, Mo.). This reduction reaction is carried out by mitochondrion succinate dehydrogenase of viable cells and produce formazan, a chromogenic compound that can be quantified by spectrophotometry.
(§3) The assay was carried out following the procedure described by Mosmann (J. Immunol. Methods 1983, 65, 55). Tumor cells were incubated in 96 well microtitre plates containing 200 μl of complete medium (with 4×10^3 cells/well for A549 and 6×10^3 cells/well for H116, PSN1 and T98G). Serial dilutions in DMSO of the test compounds (10 μg/ml, 5 μg/ml, 1 μg/ml, 0.5 μg/ml, 0.1 μg/ml, 0.05 μg/ml, 0.01 μg/ml, y 0.005 μg/ml) were added and after 2 days incubation (at 37° C., 5% CO2 and high relative humidity), 50 μl of MTT (1 mg/ml in PBS) was added to each well. The plates were incubated at 37° C. for 2 hours and the reduction product (formazan) was resuspended in 100 μl of DMSO and quantified at 490 nm with a spectrophotometer.

[2] = test system: H116 (colon adenocarcinoma); assay: MTT cell proliferation (cytotoxicity) assay, H116; settings: read-out: IC50 or concentration required to achieve 50% growth inhibition compared to untreated cells, H116 (colon)
Description: as §1, §2, §3

[3] = test system: PSN1 (pancreatic adenocarcinoma); assay: MTT cell proliferation (cytotoxicity) assay, PSN1; settings: read-out: IC50 or concentration required to achieve 50% growth inhibition compared to untreated cells, PSN1 (pancreatic adenocarcinoma)
Description: as §1, §2, §3

[4] = test system: T98G (human glyoblastoma); assay: MTT cell proliferation (cytotoxicity) assay, T98G; settings: read-out: IC50 or concentration required to achieve 50% growth inhibition compared to untreated cells, T98G (glyoblastoma)
Description: as §1, §2, §3

[5] = A549 cells, MTT, 2 days incubation, triplicate
[6] = H116 cells, MTT, 2 days incubation, triplicate
[7] = PSN1 cells, MTT, 2 days incubation, triplicate, read-out: IC50 or concentration required to achieve 50% growth inhibition compared to untreated cells, PSN1 (prostate)
[8] = T98G cells, MTT, 2 days incubation, triplicate
[9] = Homo sapiens, 48 h, A549 cells, MTT, 2 days incubation, triplicate
[10] = 48 h, H116 cells, MTT, 2 days incubation, triplicate
[11] = Homo sapiens, 48 h, PSN1 cells, MTT, 2 days incubation, triplicate, read-out: IC50 or concentration required to achieve 50% growth inhibition compared to untreated cells, PSN1 (prostate)
[12] = Homo sapiens, 48 h, T98G cells, MTT, 2 days incubation, triplicate

Row | Compound | IC50 [1, 9] | IC50 [2, 10] | IC50 [3, 11] | IC50 [4, 12] | other results
1 | CO[C@H](C(=O)C(C)=O)[C@@H]1Cc2cc3cc(O[C@H]4C[C@@H](O[C@H]5C[C@@H](O)[C@H](O)[C@@H](C)O5)[C@H](O)[C@@H](C)O4)c(C)c(O)c3c(O)c2C(=O)[C@H]1O[C@H]1C[C@@H](O[C@H]2C[C@@H](O[C@H]3C[C@](C)(O)[C@H](O)[C@@H](C)O3)[C@@H](O)[C@@H](C)O2)[C@H](O)[C@@H](C)O1 [MTM-SDK, reference compound] |  |  |  |  | IC50 [1, 5]: 0.0094 µM; IC50 [2, 6]: 0.0094 µM; IC50 [3, 7]: 0.0094 µM; IC50 [4, 8]: 0.0474 µM
2 | CO[C@H](C(=O)[C@@H](O)[C@@H](C)O)[C@@H]1Cc2cc3cc(O[C@H]4C[C@@H](O[C@H]5C[C@@H](O)[C@H](O)C(C)O5)[C@H](O)C(C)O4)c(C)c(O)c3c(O)c2C(=O)[C@H]1O[C@H]1C[C@@H](O[C@H]2C[C@@H](O[C@H]3C[C@](C)(O)[C@H](OC(C)=O)C(C)O3)[C@@H](O)C(C)O2)[C@H](O)C(C)O1 (some centres unmarked) [(XII)] | 0.05 µM | 0.01 µM | 0.05 µM | 0.3 µM | 
3 | CO[C@@H]([C@@H]1Cc2cc3cc(O[C@H]4C[C@@H](O[C@H]5C[C@@H](O)[C@H](OC(C)=O)C(C)O5)[C@H](O)C(C)O4)c(C)c(O)c3c(O)c2C(=O)[C@H]1O[C@H]1C[C@@H](O[C@H]2C[C@@H](O[C@H]3C[C@](C)(O)[C@H](O)C(C)O3)[C@@H](O)C(C)O2)[C@H](O)C(C)O1)[C@@H](O)C(C)=O (some centres unmarked) [(LXIX)] | 0.009 µM | 0.009 µM | 0.045 µM | 0.004 µM | 
4 | CO[C@@H]([C@@H]1Cc2cc3cc(O[C@H]4C[C@@H](O[C@H]5C[C@@H](O)[C@H](O)C(C)O5)[C@H](O)C(C)O4)c(C)c(O)c3c(O)c2C(=O)[C@H]1O[C@H]1C[C@@H](O[C@H]2C[C@@H](O[C@H]3C[C@@H](O)[C@H](O)C(C)O3)[C@@H](O)C(C)O2)[C@H](O)C(C)O1)[C@@H](O)C(C)=O (some centres unmarked) [(VII)] | 0.05 µM | 0.01 µM | 0.1 µM | 0.3 µM | 
5 | CO[C@H](C(=O)[C@@H](O)[C@@H](C)O)[C@@H]1Cc2cc3cc(O[C@H]4C[C@@H](O[C@H]5C[C@@H](O)[C@H](OC(=O)CCC(=O)O)C(C)O5)[C@H](O)C(C)O4)c(C)c(O)c3c(O)c2C(=O)[C@H]1O[C@H]1C[C@@H](O[C@H]2C[C@@H](O[C@H]3C[C@](C)(O)[C@H](O)C(C)O3)[C@@H](O)C(C)O2)[C@H](O)C(C)O1 (some centres unmarked) [(LIII)] | 4.21 µM | 0.844 µM | 0.633 µM | 0.844 µM | 
6 | CO[C@@H]([C@@H]1Cc2cc3cc(O[C@H]4C[C@@H](O[C@H]5C[C@@H](O)[C@H](O)[C@@H](C)O5)[C@H](O)[C@@H](C)O4)c(C)c(O)c3c(O)c2C(=O)[C@H]1O[C@H]1C[C@@H](O[C@H]2C[C@@H](O[C@H]3C[C@](C)(O)[C@H](O)[C@@H](C)O3)[C@@H](O)[C@@H](C)O2)[C@H](O)[C@@H](C)O1)[C@@H](O)C(C)=O [MTM-SK, reference compound] |  |  |  |  | IC50 [1, 5]: 0.0094 µM; IC50 [2, 6]: 0.0094 µM; IC50 [3, 7]: 0.0094 µM; IC50 [4, 8]: 0.0473 µM
7 | CO[C@H](C(=O)[C@@H](O)[C@@H](C)OC(=O)CCC(=O)O)[C@@H]1Cc2cc3cc(O[C@H]4C[C@@H](O[C@H]5C[C@@H](O)[C@H](O)C(C)O5)[C@H](O)C(C)O4)c(C)c(O)c3c(O)c2C(=O)[C@H]1O[C@H]1C[C@@H](O[C@H]2C[C@@H](O[C@H]3C[C@](C)(O)[C@H](O)C(C)O3)[C@@H](O)C(C)O2)[C@H](O)C(C)O1 (some centres unmarked) [(LII)] | 0.42 µM | 0.42 µM | 0.42 µM | 0.844 µM | 
8 | 3D-demycarosyl-3D-β-D-digitoxosyl-MTM [reference compound] |  |  |  |  | IC50 [1, 5]: 0.0466 µM; IC50 [2, 6]: 0.0466 µM; IC50 [3, 7]: 0.0466 µM; IC50 [4, 8]: 0.069 µM
9 | 3D-demycarosyl-MTM-SK [reference compound] |  |  |  |  | IC50 [1, 5]: 1 µM; IC50 [2, 6]: 0.5 µM; IC50 [3, 7]: 1 µM; IC50 [4, 8]: > 1 µM
10 | CO[C@H](C(=O)[C@@H](O)[C@@H](C)O)[C@@H]1Cc2cc3cc(O[C@H]4C[C@@H](O[C@H]5C[C@@H](OC(=O)CCC(=O)O)[C@H](O)C(C)O5)[C@H](O)C(C)O4)c(C)c(O)c3c(O)c2C(=O)[C@H]1O[C@H]1C[C@@H](O[C@H]2C[C@@H](O[C@H]3C[C@](C)(O)[C@H](O)C(C)O3)[C@@H](O)C(C)O2)[C@H](O)C(C)O1 (some centres unmarked) [(LV)] | 4.21 µM | 4.21 µM | 0.422 µM | 4.21 µM | 
11 | CCCC(=O)O[C@@H]1C[C@H](O[C@@H]2C[C@H](Oc3cc4cc5c(c(O)c4c(O)c3C)C(=O)[C@@H](O[C@H]3C[C@@H](O[C@H]4C[C@@H](O[C@H]6C[C@](C)(O)[C@H](O)C(C)O6)[C@@H](O)C(C)O4)[C@H](O)C(C)O3)[C@H]([C@H](OC)C(=O)[C@@H](O)[C@@H](C)O)C5)OC(C)[C@H]2O)OC(C)[C@H]1O (some centres unmarked) [(XLVI)] | 0.433 µM | 0.043 µM | 0.043 µM | 0.043 µM | 
12 | C/C=C/C(=O)O[C@@H]1C[C@H](O[C@@H]2C[C@H](Oc3cc4cc5c(c(O)c4c(O)c3C)C(=O)[C@@H](O[C@H]3C[C@@H](O[C@H]4C[C@@H](O[C@H]6C[C@](C)(O)[C@H](O)C(C)O6)[C@@H](O)C(C)O4)[C@H](O)C(C)O3)[C@H]([C@H](OC)C(=O)[C@@H](O)[C@@H](C)O)C5)OC(C)[C@H]2O)OC(C)[C@H]1O (some centres unmarked) [(LI)] | 0.043 µM | 0.043 µM | 0.043 µM | 0.087 µM | 
13 | CO[C@H](C(=O)C(C)=O)[C@@H]1Cc2cc3cc(O[C@H]4C[C@@H](O[C@H]5C[C@@H](O)[C@H](O)C(C)O5)[C@H](O)C(C)O4)c(C)c(O)c3c(O)c2C(=O)[C@H]1O[C@H]1C[C@@H](O[C@H]2C[C@@H](O)[C@@H](O)C(C)O2)[C@H](O)C(C)O1 (some centres unmarked) [(VIII)] | 0.05 µM | 0.05 µM | 0.1 µM | 0.3 µM | 
14 | CO[C@H](C(=O)C(C)=O)[C@@H]1Cc2cc3cc(O[C@H]4C[C@@H](O[C@H]5C[C@@H](O)[C@H](O)C(C)O5)[C@H](O)C(C)O4)c(C)c(O)c3c(O)c2C(=O)[C@H]1O[C@H]1C[C@@H](O[C@H]2C[C@@H](O[C@H]3C[C@@H](O)[C@H](O)C(C)O3)[C@@H](O)C(C)O2)[C@H](O)C(C)O1 (some centres unmarked) [(IX)] |  |  |  |  | IC50 ([1]; Homo sapiens, A549, 48 h): 0.005 µM; IC50 ([2]; H116, 48 h): 0.005 µM; IC50 ([3]; Homo sapiens, PSN1, 48 h): 0.005 µM; IC50 ([4]; Homo sapiens, T98G, 48 h): 0.01 µM
15 | CO[C@@H]([C@@H]1Cc2cc3cc(O[C@H]4C[C@@H](O[C@H]5C[C@@H](OC(C)=O)[C@H](O)C(C)O5)[C@H](O)C(C)O4)c(C)c(O)c3c(O)c2C(=O)[C@H]1O[C@H]1C[C@@H](O[C@H]2C[C@@H](O[C@H]3C[C@](C)(O)[C@H](O)C(C)O3)[C@@H](O)C(C)O2)[C@H](O)C(C)O1)[C@@H](O)C(C)=O (some centres unmarked) [(LXI)] | 0.045 µM | 0.009 µM | 0.0065 µM | 0.045 µM | 
16 | CCCC(=O)O[C@H](C)[C@H](O)C(=O)[C@@H](OC)[C@@H]1Cc2cc3cc(O[C@H]4C[C@@H](O[C@H]5C[C@@H](O)[C@H](O)C(C)O5)[C@H](O)C(C)O4)c(C)c(O)c3c(O)c2C(=O)[C@H]1O[C@H]1C[C@@H](O[C@H]2C[C@@H](O[C@H]3C[C@](C)(O)[C@H](O)C(C)O3)[C@@H](O)C(C)O2)[C@H](O)C(C)O1 (some centres unmarked) [(XXXI)] | 0.043 µM | 0.043 µM | 0.043 µM | 0.043 µM | 
17 | CO[C@@H]([C@@H]1Cc2cc3cc(O[C@H]4C[C@@H](O[C@H]5C[C@@H](O)[C@H](O)C(C)O5)[C@H](O)C(C)O4)c(C)c(O)c3c(O)c2C(=O)[C@H]1O[C@H]1C[C@@H](O[C@H]2C[C@@H](O[C@H]3C[C@](C)(O)[C@H](O)C(C)O3)[C@@H](O)C(C)O2)[C@H](O)C(C)O1)[C@@H](O)C(C)=O (some centres unmarked) [(XIV)] | 0.05 µM | 0.01 µM | 0.05 µM | 0.75 µM | 
